US20100331282A1, “PYRIDINE DERIVATIVE CONTAINING ((PHOSPHONOOXY)METHYL)PYRIDINIUM RING, AND ANTIFUNGAL AGENT CONTAINING THESE DERIVATIVE” (priority 2009, published 2010)
Values after ≈ are worked out from the molar mass of the structure shown.

Columns and labels:
[1] = Comparative test of solubility in water (Britton-Robinson buffer); assay type: physicochemical; conditions: aqueous buffer, Britton-Robinson buffer (ion strength of 0.3) at 25° C.
Experimental: 3-(3-(4-(Pyridin-2-ylmethoxy)-benzyl)-isoxazol-5-yl)-pyridin-2-ylamine described in Reference Example 1, which is the parent compound, and the compound of Example 1 were compared for solubility in a Britton-Robinson buffer (ion strength of 0.3) at 25° C.

[2] = Conversion into parent compound (active form) in human liver S9 fraction; assay type: in vitro ADME; conditions: human liver S9 reaction solution, 0.2 mg/mL protein, 10 μmol/L compound, pH 7.4, 37° C., 0, 30, 60 minutes, LC-MS (FIG. 1)
Experimental: (§1) A suspension (pH of 7.4) containing human and monkey liver S9 fractions (with a protein concentration of 0.22 mg/mL), 0.5 mmol/L magnesium chloride, and 100 mmol/L tris-HCl was prepared over ice (various reaction solutions A). 30 μL of a 100 μmol/mL aqueous solution of the compound according to the present invention (the compound of Example 1) was added to the various reaction solutions A (for a final compound concentration of 10 μmol/L) to obtain various liver S9 reaction solutions (with a final protein concentration of 0.2 mg/mL), and these were stored on ice until (2) was carried out. A control sample was prepared (reaction buffer solution) by adding 30 μL of a […] aqueous solution of the compound according to the present invention (the compound of Example 1) to 0.27 mL of a buffer (pH of 7.4) containing 0.5 mmol/L magnesium chloride and 100 mmol/L tris-HCl. […]
(§2) (3) The Concentrations of the Compound According to the Present Invention (the Compound of Example 1) and the Parent Compound (the Compound of Reference Example 1) in the Reaction Solution were Quantified by LC-MS.
(§3) The concentrations of the compound according to the present invention (the compound of Example 1) and the parent compound (the compound of Reference Example 1) in the reaction solution were measured by the method described in 2. above. […]

[3] = Conversion into parent compound (active form) in monkey liver S9 fraction; assay type: in vitro ADME; conditions: monkey liver S9 reaction solution, 0.2 mg/mL protein, 10 μmol/L compound, pH 7.4, 37° C., 0, 30, 60 minutes, LC-MS (FIG. 2)
Experimental: as §1, §2, §3

[4] = tested on: A. fumigatus Tsukuba strain; experiment: Anti-Aspergillus activity (MIC measurement); assay type: cell-based; conditions: RPMI1640 medium, 42-48 hours at 35° C., visual inspection, read-out: Anti-Aspergillus activity (minimum inhibitory concentration, MIC)
Experimental: (§4) For the C. albicans CAF2-1 strain, a fungal suspension from a standing culture for 48 hours at 30° C. in a Sabouraud dextrose liquid culture medium (SDB) was diluted with RPMI1640 medium to adjust a fungal suspension of 1.2×10^3 cells/mL. For the A. fumigatus Tsukuba strain, −80° C. stored strain was diluted with RPMI1640 medium to adjust to a fungal suspension of 4.5×10^3 cells/mL.
(§5) Using a U-bottomed 96 well plate, 8 samples/plate (A to H) of sample dilution solutions were prepared. On the 2nd to 12th rows were dispensed 10 μl of dimethyl sulfoxide solution. Weighted sample was dissolved in dimethyl sulfoxide to prepare a 2.5 mg/mL solution, 20 μl of this solution was added to the first row of the prepared plate, and 12 steps of two-folded step dilutions (10 μl of solution+10 μl of dimethyl sulfoxide solution) were performed on the plate. This sample dilution solution was dispensed in the amount of 1 μl to a flat-bottomed 96 well plate for MIC measurement to prepare a sample dilution plate.
(§6) The fungal suspension prepared in (1) was used in the amount of […] to inoculate the flat-bottomed 96 well plate containing 1 μL/well of the test compound dilution prepared in (2), and a standing culture was carried out aerobically for 42-48 hours at 35° C.

[5] = tested on: C. albicans CAF2-1 strain; experiment: Anti-Candida activity (MIC measurement); assay type: cell-based; conditions: CAF21STRAIN, RPMI1640 medium, 42-48 hours at 35° C., visual inspection, read-out: Anti-Candida (minimum inhibitory concentration, MIC)
Experimental: as §4, §5, §6

| Compound | solubility ([1]; pH 3) [µg/mL] | solubility ([1]; pH 7) [µg/mL] | solubility ([1]; pH 9) [µg/mL] | Conversion into the parent compound (compound of Reference Example 1) [2] | Conversion into the parent compound (compound of Reference Example 1) [3] | MIC [4] [µg/mL] | MIC [5] [µg/mL] |
| --- | --- | --- | --- | --- | --- | --- | --- |
| Nc1ncccc1-c1cc(Cc2ccc(OCc3cccc[n+]3COP(=O)([O-])O)cc2)no1 [Example 1, 2-((4-((5-(2-Amino-3-pyridinyl)-3-isoxazolyl)methyl)phenoxy)methyl)-1-((phosphonooxy)methyl)pyridinium mono-trifluoroacetate] | > 70000 | > 70000 | > 70000 | converted into the parent compound | converted into the parent compound | – | – |
| Nc1ncccc1-c1cc(Cc2ccc(OCc3ccccn3)cc2)no1 [Reference Example 1, 3-(3-(4-(Pyridin-2-ylmethoxy)-benzyl)-isoxazol-5-yl)-pyridin-2-ylamine] | 400 (≈ 1120 µM) | < 100 | < 100 | – | – | 0.39 (≈ 1.09 µM) | 0.2 (≈ 0.558 µM) |
